Format in all cases: in vivo
Common to all, as to conditions: 312 h, rate 250 g/ha, evaluated after 13 days, 100=total damage to plant, 0=no damage to plant

For assay [1], the system named is Alopecurus myosuroides (ALOMY). The assay is described as follows: Pre-emergence herbicidal activity, glasshouse pot test. The method in brief:
(§1)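 Scored 0–100 (no damage to total damage) 13 days after treatment. Spray was applied 1 day post-sowing, formulated in acetone/water 50:50 plus 0.5% Tween 20, diluted in water. Glasshouse conditions: 24/16 °C, 14 h light, 65% humidity, watered twice daily.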

The subject of assay [2] is Avena fatua (AVEFA). The description is as above. In a few lines:
as §1

The subject of assay [3] is Echinochloa crus-galli (ECHCG). The assay is described as above. In a few lines: as §1
Assay [4] relates to Lolium perenne (LOLPE). The description is as above. The method in brief:
as §1

Assay [5] has as its system Alopecurus myosuroides (ALOMY). The assay is described as follows: Post-emergence herbicidal activity, glasshouse pot test. In a few lines:
(§2)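 Plants grown from seed in standard soil were sprayed 8 days after sowing with the active ingredient formulated in acetone/water (50:50) containing 0.5% Tween 20. Glasshouse conditions were 24/16 °C day/night, 14 h light, 65% humidity, with watering twice daily. Damage was scored 13 days later (0 = none, 100 = total).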

Assay [6] relates to Avena fatua (AVEFA). The description is as above. In a few lines:
as §2

The subject of assay [7] is Echinochloa crus-galli (ECHCG). The assay is described as above. The method in brief: as §2
Assay [8] concerns Lolium perenne (LOLPE). The assay is described as above. The method in brief:
as §2

`CCc1ccc(Oc2ccc(Cl)cc2)cc1C1=C(O)C2C(C1=O)[C@H]1CC[C@@H]2CC1` (stereo partly shown) [Compound A-31]: the pest or weed control (in general, how far the test organism was held down) at 250 g/ha in assay [1] stood at 20%; in the assay with Avena fatua (AVEFA) [2] it was 0%; in assay [3], 90%; in the assay with Lolium perenne (LOLPE) [4], 50%; in assay [5], 100%; with Avena fatua (AVEFA) [6], 80%. In addition, the pest or weed control at 250 g/ha was determined as 100% in assay [7] and 40% in the assay with Lolium perenne (LOLPE) [8].

On to `CCc1ccc(Oc2ccc(Br)cc2Cl)cc1C1=C(O)[C@H]2[C@@H](C1=O)[C@@H]1CC[C@H]2O1` [Compound A-9], for which the pest or weed control at 250 g/ha in assay [1] worked out at 80%; with Avena fatua (AVEFA) [2] it was 90%; in assay [3], 70%; with Lolium perenne (LOLPE) [4], 100%; in assay [5], 90%; with Avena fatua (AVEFA) [6] it was 100%. Moreover, the pest or weed control at 250 g/ha in assay [7] was 90%; in the assay with Lolium perenne (LOLPE) [8], 70%.

On to `CCc1ccc(Oc2cccc(Cl)c2)cc1C1=C(O)[C@H]2[C@@H](C1=O)[C@@H]1CC[C@H]2O1` [Compound A-7], for which the pest or weed control at 250 g/ha in assay [1] was 60%; in the assay on Avena fatua (AVEFA) [2], 50%; in assay [3], 70%; in the assay on Lolium perenne (LOLPE) [4] it was 60%; in assay [5], 60%; in the assay on Avena fatua (AVEFA) [6], 80%. The pest or weed control at 250 g/ha amounted to 100% in assay [7] and 60% in the assay with Lolium perenne (LOLPE) [8].

In the case of `CCc1ccc(Oc2cnc3cc(Cl)ccc3n2)cc1C1=C(O)[C@H]2[C@H]3CC[C@H](C3)[C@H]2C1=O` [Compound A-10, meso-(3aS,4S,7R,7aR)-2-[5-(6-chloroquinoxalin-2-yloxy)-2-ethylphenyl]hexahydro-4,7-methanoindene-1,3-dione], the pest or weed control at 250 g/ha in assay [1] came to 40%; in the assay with Avena fatua (AVEFA) [2], 20%; in assay [3], 60%; with Lolium perenne (LOLPE) [4], 30%; in assay [5], 90%; in the assay with Avena fatua (AVEFA) [6] it was 100%. Further, the pest or weed control at 250 g/ha (in assay [7]; in the assay on Lolium perenne (LOLPE) [8]) was 90% each time.

Regarding `CCc1ccc(Oc2ccc3cc(Cl)ccc3n2)cc1C1=C(O)CCC1=O` [Compound A-43], the pest or weed control at 250 g/ha came to 40% in assay [1]; 10% in the assay with Avena fatua (AVEFA) [2]; 60% in assay [3]; 50% with Lolium perenne (LOLPE) [4]; 60% in assay [5]; 30% with Avena fatua (AVEFA) [6]. For the same molecule, the pest or weed control at 250 g/ha in assay [7] was 100%; in the assay with Lolium perenne (LOLPE) [8], 30%.

For `CCc1ccc(Oc2ccc(Cl)cc2F)cc1C1=C(O)[C@H]2[C@@H](C1=O)[C@@H]1CC[C@H]2O1` [Compound A-6], the pest or weed control at 250 g/ha turned out to be 100% in assay [1]; 90% in the assay with Avena fatua (AVEFA) [2]; 100% in assay [3]; 100% in the assay with Lolium perenne (LOLPE) [4]; 80% in assay [5]; 90% in the assay with Avena fatua (AVEFA) [6]. For the same molecule, the pest or weed control at 250 g/ha in assay [7] amounted to 100%; in the assay on Lolium perenne (LOLPE) [8] it was 90%.

For the molecule `CCc1ccc(Oc2ccc(C(F)(F)F)cn2)cc1C1=C(O)CCC1=O` [Compound A-60], the pest or weed control at 250 g/ha in assay [1] was 80%; in the assay with Avena fatua (AVEFA) [2] it was 70%; in assay [3], 100%; in the assay with Lolium perenne (LOLPE) [4], 80%; in assay [5], 90%; with Avena fatua (AVEFA) [6] it was 80%. Besides, the pest or weed control at 250 g/ha in assay [7] was found to be 100%; in the assay with Lolium perenne (LOLPE) [8], 80%.

Regarding `CCc1ccc(Oc2ncc(C(F)(F)F)cc2C(F)(F)F)cc1C1=C(O)CCC1=O` [Compound A-71], the pest or weed control at 250 g/ha in assay [1] stood at 90%; in the assay with Avena fatua (AVEFA) [2], 80%; in assay [3], 100%; with Lolium perenne (LOLPE) [4] it was 100%; in assay [5], 100%; with Avena fatua (AVEFA) [6], 100%. The pest or weed control at 250 g/ha (in assay [7]; with Lolium perenne (LOLPE) [8]) was 100% in each case.

Take `O=C1CCC(O)=C1c1cc(Oc2ccc(Cl)cc2)ccc1C1CC1` [Compound A-54, 2-[5-(4-chlorophenoxy)-2-cyclopropylphenyl]cyclopentane-1,3-dione]: the pest or weed control at 250 g/ha in assay [1] came out at 0%; in the assay on Avena fatua (AVEFA) [2], 0%; in assay [3], 0%; with Lolium perenne (LOLPE) [4] it was 0%; in assay [5] it was 0%; in the assay with Avena fatua (AVEFA) [6], 10%. Also, the values for the pest or weed control at 250 g/ha (in assay [7]; in the assay with Lolium perenne (LOLPE) [8]) were 80% and 0%, respectively.

For `CCc1ccc(Oc2ccc(C(F)(F)F)c(C#N)c2)cc1C1=C(O)CCC1=O` [Compound A-70], the pest or weed control at 250 g/ha in assay [1] was 0%; in the assay with Avena fatua (AVEFA) [2], 10%; in assay [3], 60%; in the assay on Lolium perenne (LOLPE) [4], 20%; in assay [5], 0%; in the assay on Avena fatua (AVEFA) [6], 0%. The results for the pest or weed control at 250 g/ha (in assay [7]; in the assay with Lolium perenne (LOLPE) [8]) were 60% and 10%, respectively.

As for `CCc1ccc(Oc2cnc3ccccc3n2)cc1C1=C(O)CCC1=O` [Compound A-67], the pest or weed control at 250 g/ha was found to be 60% in assay [1]; 40% in the assay with Avena fatua (AVEFA) [2]; 100% in assay [3]; 100% with Lolium perenne (LOLPE) [4]; 70% in assay [5]; 20% in the assay with Avena fatua (AVEFA) [6]. Besides, the pest or weed control at 250 g/ha in assay [7] was found to be 100%; in the assay with Lolium perenne (LOLPE) [8] it was 80%.

Turning to `CCc1ccc(Oc2ccc(Cl)c(F)c2)cc1C1=C(O)C2C(C1=O)[C@H]1CC[C@@H]2CC1` (stereo partly shown) [Compound A-33], the pest or weed control at 250 g/ha in assay [1] is 20%; with Avena fatua (AVEFA) [2], 0%; in assay [3], 50%; with Lolium perenne (LOLPE) [4], 50%; in assay [5], 90%; in the assay with Avena fatua (AVEFA) [6], 90%. The pest or weed control at 250 g/ha came out at 100% in assay [7] and 0% in the assay on Lolium perenne (LOLPE) [8].

On to `CCc1ccc(Oc2ncc(C(F)(F)F)cc2Cl)cc1C1=C(O)C2C(C1=O)[C@H]1CC[C@@H]2CC1` (stereo partly shown) [Compound A-88], for which the pest or weed control at 250 g/ha in assay [1] worked out at 90%; in the assay with Avena fatua (AVEFA) [2] it was 40%; in assay [3], 100%; with Lolium perenne (LOLPE) [4], 100%; in assay [5] it was 90%; with Avena fatua (AVEFA) [6], 100%. Also, the figures for the pest or weed control at 250 g/ha (in assay [7]; in the assay on Lolium perenne (LOLPE) [8]) were 100% and 90%, respectively.

For `CCc1ccc(Oc2ncc(Cl)cc2F)cc1C1=C(O)CCC1=O` [Compound A-19], the pest or weed control at 250 g/ha turned out to be 90% in assay [1]; 80% in the assay on Avena fatua (AVEFA) [2]; 90% in assay [3]; 90% in the assay with Lolium perenne (LOLPE) [4]; 80% in assay [5]; 60% with Avena fatua (AVEFA) [6]. Further, the pest or weed control at 250 g/ha came out at 100% in assay [7] and 50% in the assay on Lolium perenne (LOLPE) [8].

Take `CCc1ccc(Oc2ccc(Br)cc2)cc1C1=C(O)CCC1=O` [Compound A-37]: the pest or weed control at 250 g/ha in assay [1] stood at 10%; in the assay on Avena fatua (AVEFA) [2] it was 0%; in assay [3] it was 20%; with Lolium perenne (LOLPE) [4], 10%; in assay [5], 20%; in the assay with Avena fatua (AVEFA) [6], 20%. Besides, the pest or weed control at 250 g/ha in assay [7] amounted to 80%; in the assay on Lolium perenne (LOLPE) [8], 30%.

For the molecule `CCc1ccc(Oc2ccc(Br)cc2Cl)cc1C1=C(O)[C@H]2[C@H]3CC[C@H](C3)[C@H]2C1=O` [Compound A-20], the pest or weed control at 250 g/ha in assay [1] came out at 50%; in the assay with Avena fatua (AVEFA) [2], 10%; in assay [3], 60%; with Lolium perenne (LOLPE) [4], 50%; in assay [5], 30%; in the assay on Avena fatua (AVEFA) [6], 0%. Besides, the pest or weed control at 250 g/ha in assay [7] is 70%; in the assay on Lolium perenne (LOLPE) [8] it was 20%.

As for `CCc1ccc(Oc2ncc(Cl)cc2F)cc1C1=C(O)C2C(C1=O)[C@H]1CC[C@@H]2CC1` (stereo partly shown) [Compound A-14], the pest or weed control at 250 g/ha in assay [1] amounted to 60%; with Avena fatua (AVEFA) [2] it was 60%; in assay [3] it was 100%; in the assay on Lolium perenne (LOLPE) [4], 90%; in assay [5] it was 100%; in the assay with Avena fatua (AVEFA) [6], 100%. Also, the values for the pest or weed control at 250 g/ha (in assay [7]; with Lolium perenne (LOLPE) [8]) were 100% and 90%, respectively.

(Values after US8895474B2, “Herbicidally active cyclopentanediones and derivatives thereof, and their use in controlling weeds” (Syngenta Limited, priority 2009, dated 2014).)
